Measured values taken from patent US20080194678A1, “Process To Obtain Synthetic And Semi-Synthetic Lignan Derivatives, Their Antiparasitic Activities And Corresponding Pharmaceutical Formulations, Including The Therapeutic Method Using Said Lignan For The Treatment Of Parasitosis” (Fundacao de Amparo a Pesquissa do Estado de Aao Pa, priority 2005, published 2008).
“Also recorded” adds a separate entry of the source. Where two headings read alike, the source gives them in different places.

Columns and labels:
[1] = system: S. mansoni; assay: Couples of S. mansoni recovered from infected BALB/c mice by perfusion after treatment; format: in vivo, Schistosoma mansoni; conditions: for number of S. mansoni recovered / couples of S. mansoni recovered in the treated group / efficacy: BALB/c mice; for number of S. mansoni recovered / efficacy: single dose 10 mg/kg after 40 days of infection; for couples of S. mansoni recovered in the treated group: single dose 10 mg/kg after 40 days of infection (approx. 200 cercariae), untreated group 40 couples/animal; for reduction of the viable worms: 10 mg/kg of weight, after 40 days of infection with S. mansoni
Protocol: FIG. 8—graph with the number of recovered worms vs. effect of the drug. Couples of S. mansoni recovered from BALB/c mice by perfusion of the door-kidney system. Five mice, after 40 days of infection (approximately 200 cercariae), were submitted to test with a single dose of the drug dinitrocubebine (10 mg/kg of weight). In the group untreated (negative control treated only with a 5% dimethyl sulfoxide solution in water), 40 couples/animal were recovered. In the treated group, only 5 couples were recovered. […] FIG. 9—graph with the number of recovered worms vs. effect of the drug. Couples of S. mansoni recovered from BALB/c mice by perfusion of the door-kidney system. Five mice, after 40 days of infection (approximately 200 cercariae), were submitted to test with a single dose of the drug methylcubebin (10 mg/kg of weight). In the untreated group (negative control treated only with a 5% dimethyl sulfoxide solution in water), 40 couples/animal were recovered. In the treated group, only five couples were recovered. […] In in vivo tests, the drugs (−)—O-methylcubebin (6) and (−)-6,6′-dinitronokinin (8) presented results similar to the obtained with praziquantel, in the same concentration (10 mg/kg of weight), i.e. reduction of approximately 90% of the viable worms, after 40 days of infection with S. mansoni. […] Such a result was extremely important and promising, since the drug was given to the parasites when they were still maturing and had not yet reached the evolutive form of adult worms. […] Thus, the developed medicine may be used not only as a healing drug, but also as a prophylactic drug in the combat against schistosomosis. Another advantage relates to the low toxicity of these substances for use in antiparasitic therapeutics, since many of these derivatives have hepatic-protecting and antioxidant action. Thus, the use of these lignans certainly offers higher safety for therapeutic use than praziquantel. So, the use of these substances in medicines for longer treatments is safer than with praziquantel and they have nearly no significant side effects. Finally, this group of substances is obtained from natural sources, which is not applicable to praziquantel.

[2] = system: Schistosoma; assay: Schistosomicidal activity (test not specified)
[3] = system: Schistosoma mansoni (evolutive stage of adult worm); assay: In vitro culture of Schistosoma mansoni adult worm couples (motility, separation, egglaying, tegument, death); format: cell-based; conditions: for time to considerable increase in the motility of parasite couples / time to separation of parasite couples: 14.0 and 7.0 μg/ml; for change in tegument or death of parasites: worms analyzed for 5 days
Protocol: FIG. 1—effect of the drugs (−)-hinokinin (3) and (−)-O—(N,N-dimethylamino-ethyl) cubebin (4), in concentrations of 14, 7.5 and 3.5 μg/ml, under the parasite Schistosoma mansoni's egglaying during 5 days of culture.
FIG. 2—effect of the drug (−)-6,6-dinitroinokinin (8), in concentrations of 14, 7.5 and 3.5 μg/ml, under the parasite Schistosoma mansoni's egglaying during 5 days of culture.
FIG. 3—effect of the drug (−)—O-methylcubebin (5), in concentrations of 14, 7.5 and 3.5 μg/ml, under the parasite Schistosoma mansoni's egglaying during 5 days of culture
FIG. 4—parasite Schistosoma mansoni (evolutive stage of adult worm) cultivated in vitro in RPMI 1640 medium, in 5% CO2 atmosphere at 37° C. for 24 hours, in the absence and presence of the drug (−)-6,6-dinitroinokinin (8). A and C, male and female parasites, respectively, cultivated in the absence of substances. B and D, male and female parasite, respectively, cultivated in the presence of the Drug (the same effect was noticed in concentrations of 14.0, 7.0 and 3.0 μg/ml) Inverted light microscope, 4× magnification.
Two hours after the addition of substances 3 and 5 in concentrations of 14.0 and 7.0 μg/ml, considerable increase in the motility of parasite couples was noticed, ending up with their separation after 18 hours.

[4] = system: Schistosoma mansoni (evolutive stage of adult worm); assay: as above; format: cell-based; conditions: 14.0, 7.0 and 3.5 μg/ml
[5] = system: S. mansoni; assay: Couples of S. mansoni recovered from infected BALB/c mice by perfusion after treatment; format: in vivo, Schistosoma mansoni; conditions: after 7 and 21 days of infection
[6] = system: Schistosoma; conditions: cited from earlier work; for side effects: patients
[7] = system: S. mansoni; conditions: vertebrate host; cited from earlier work
[8] = 3.5 μg/ml, after 24 hours of culture

With `O=[N+]([O-])c1cc2c(cc1CC1COC(O)C1Cc1cc3c(cc1[N+](=O)[O-])OCO3)OCO2` (single isomer, unassigned; (-)) [8a, (−)-6,6′-dinitrocubebin] the “number of S. mansoni recovered” value [1] was “about 10%”, the “couples of S. mansoni recovered in the treated group” value [1] was 5 couples and the schistosomicidal activity [2] was “significant schistosomicidal activity”.
For `CC(=O)OC1OC[C@H](Cc2ccc3c(c2)OCO3)[C@H]1Cc1ccc2c(c1)OCO2` (single isomer, unassigned; (-)) [compound 4, (−)-O-acetylcubebin], the schistosomicidal activity [2] was “significant schistosomicidal activity”.
In the case of `CN(C)CCOC1OCC(Cc2ccc3c(c2)OCO3)C1Cc1ccc2c(c1)OCO2` (single isomer, unassigned; (-)) [compound 5, (−)-O—(N,N-dimethylaminoethyl)-cubebin], the “time to increase in the motility of couples” value ([3]; 3.5 μg/ml) is reported as 24 h, the “time to separation of the couples” value ([3]; 3.5 μg/ml) is reported as 36 h and the effect on egglaying [3, 8] is reported as “considerable reduction of egglaying”. The “time to considerable increase in the motility of parasite couples” value [3] was “Two”, the “time to separation of parasite couples” value [3] was 18 h and the “change in tegument or death of parasites” value ([3]; 14.0, 7.0 and 3.5 μg/ml) was “no apparent change in tegument or death of parasites”. For the same compound, the schistosomicidal activity [2] was “significant schistosomicidal activity”.
For `COC1OC[C@@H](Cc2ccc3c(c2)OCO3)[C@@H]1Cc1ccc2c(c1)OCO2` (single isomer, unassigned; (-)) [compound 6, (−)-O-methylcubebin], the “increase in motility of couples” value ([3]; 14, 7.5 and 3.5 μg/ml) was “increased the motility of couples after the first hour of culture”, the “time to separation of the parasites” value ([3]; 14, 7.5 and 3.5 μg/ml) was at most 12 h and the “reduction of the viable worms” value [1] was “approximately 90%”. For the same compound, the efficacy [1] was “around 93%”, the “number of S. mansoni recovered” value [1] was “about 10%” and the “couples of S. mansoni recovered in the treated group” value [1] was “five”. For the same compound, the schistosomicidal activity [2] was “significant schistosomicidal activity”, the “tegument (cutaneous) lesions in male and female parasites” value [4] was “did not produce cutaneous lesions” and the “reduction of the viable worms” value ([5]; two doses 10 mg/kg of weight) was “approximately 90%”. The “action on intermediary forms of the parasite (schistosomulus) in the vertebrate host” value ([5]; two doses 10 mg/kg) was “also acts on the intermediary forms of the parasite (schistosomulus)”.
In the case of `c1ccc(COC2OC[C@@H](Cc3ccc4c(c3)OCO4)[C@@H]2Cc2ccc3c(c2)OCO3)cc1` (single isomer, unassigned; (-)) [compound 7, (−)-O-benzylcubebin], the schistosomicidal activity [2] is reported as “significant schistosomicidal activity”.
In the case of `Nc1cc2c(cc1CC1COC(=O)C1Cc1cc3c(cc1N)OCO3)OCO2` (single isomer, unassigned; (-)) [compound 9, (−)-6,6′-diaminonokinin], the schistosomicidal activity [2] is reported as “significant schistosomicidal activity”.
In the case of `COc1ccc([C@H]2O[C@@H](c3ccc(OC)c(OC)c3)[C@H](C)[C@@H]2C)cc1OC` [14b, galgravin], the schistosomicidal activity [2] is reported as “significant schistosomicidal activity”.
In the case of `COc1cc([C@H]2O[C@@H](c3ccc(OC)c(OC)c3)[C@H](C)[C@@H]2C)ccc1O` [14c, nectandrin A], the schistosomicidal activity [2] is reported as “significant schistosomicidal activity”.
In the case of `COc1cc([C@H]2O[C@@H](c3ccc(O)c(OC)c3)[C@H](C)[C@@H]2C)ccc1O` [14d, nectandrin B], the schistosomicidal activity [2] is reported as “significant schistosomicidal activity”.
With `COc1ccc([C@H]2O[C@@H](c3ccc(OC)c(OC)c3)[C@H](C)[C@H]2C)cc1OC` [15b, veragensin] the schistosomicidal activity [2] was “significant schistosomicidal activity”.
For `COc1ccc([C@H]2O[C@H](c3ccc(OC)c(OC)c3)[C@@H](C)[C@H]2C)cc1OC` [16a, ganschisandrin], the schistosomicidal activity [2] was “significant schistosomicidal activity”.
In the case of `CC(C)NCC1CCc2cc(CO)c([N+](=O)[O-])cc2N1` (stereo not shown) [Oxamniquin, oxamniquin], the “cases in which the drug is effective” value ([6]; adults) is listed as “about 80%”, the “cases in which the drug is effective” value ([6]; children) is listed as about 65% and the side effects [6] is listed as “cephalgia, sleepiness, nausea, tremors and rarely convulsions”.
With `COc1ccc(C[C@H]2C(=O)OC[C@@H]2Cc2ccc3c(c2)OCO3)cc1OC` [compound 1, (−)-methylpluviatolide] the schistosomicidal activity [2] was “significant schistosomicidal activity”.
For `O[C@H]1OC[C@H](Cc2ccc3c(c2)OCO3)[C@H]1Cc1ccc2c(c1)OCO2` [compound 2, (−)-cubebin], the schistosomicidal activity [2] was “significant schistosomicidal activity”.
In the case of `O=C1OC[C@H](Cc2ccc3c(c2)OCO3)[C@H]1Cc1ccc2c(c1)OCO2` [compound 3, (−)-hinokinin], the “time to increase in the motility of couples” value ([3]; 3.5 μg/ml) is reported as 24 h, the “time to separation of the couples” value ([3]; 3.5 μg/ml) is reported as 36 h and the effect on egglaying [3, 8] is reported as “considerable reduction of egglaying”. For the same compound, the “time to considerable increase in the motility of parasite couples” value [3] was “Two”, the “time to separation of parasite couples” value [3] was 18 h and the “change in tegument or death of parasites” value ([3]; 14.0, 7.0 and 3.5 μg/ml) was “no apparent change in tegument or death of parasites”. The schistosomicidal activity [2] was “significant schistosomicidal activity”.
With `O=C1OC[C@H](Cc2cc3c(cc2[N+](=O)[O-])OCO3)[C@H]1Cc1cc2c(cc1[N+](=O)[O-])OCO2` [compound 8, (−)-6,6′-dinitroinokinin] the “time to death of parasites” value ([3]; 3.5 μg/ml) was 36 h, the “time to death of parasites” value ([3]; 7.0 μg/ml) was 24 h and the “time to death of parasites” value ([3]; 14.0 μg/ml) was 20 h. For the same compound, the “death of the parasites” value ([3]; 14.0, 7.0 and 3.5 μg/ml) was “causing their death”, the “increase in motility of couples” value ([3]; 14, 7.5 and 3.5 μg/ml) was “considerable increase in motility in the first hour of culture” and the “time to separation of the parasites” value ([3]; 14, 7.5 and 3.5 μg/ml) was 12 h. For the same compound, the effect on egglaying ([3]; 14, 7.5 and 3.5 μg/ml, after separation) was “interruption in egglaying”, the “reduction of the viable worms” value [1] was “approximately 90%” and the efficacy [1] was “around 90%”. The schistosomicidal activity [2] was “significant schistosomicidal activity” and the “tegument (cutaneous) lesions in male and female parasites” value [4] was “strong tegument lesions in both male and female parasites; also recorded: very evident tegument lesions”.
For `COc1cc(OC)c([C@H]2[C@H](C)[C@@H](c3cc(OC)c(OC)cc3OC)O[C@H]2C)cc1OC` [compound 17, magnosalicin], the schistosomicidal activity [2] was “significant schistosomicidal activity”.
In the case of `O=C(C1CCCCC1)N1CC(=O)N2CCc3ccccc3C2C1` (stereo not shown) [praziquantel], the “reduction of the viable worms” value [1] is listed as “approximately 90%”, the “evolutive form of S. mansoni acted on” value [7] is listed as “acts only on the evolutive form of adult worms” and the side effects [6] is listed as “abdominal pain, diarrhea, fever and urticaria-shaped reactions”.
For aristolignine [15c], the schistosomicidal activity [2] was “significant schistosomicidal activity”.
For caloptin [15a], the schistosomicidal activity [2] was “significant schistosomicidal activity”.
For machilin [14a], the schistosomicidal activity [2] was “significant schistosomicidal activity”.
In the case of morelensine [1a], the schistosomicidal activity [2] is reported as “significant schistosomicidal activity”.
For nectandrin D [16b], the schistosomicidal activity [2] was “significant schistosomicidal activity”.
For nectandrin E [16c], the schistosomicidal activity [2] was “significant schistosomicidal activity”.
